Experimental data reported in patent US6596728B1, “Substituted 1,3-diaryl-2-pyrid-2-yl-3-(pyrid-2-ylamino)propanol derivatives, process for their preparation, pharmaceuticals comprising these compounds and their use” (Aventis Pharma Deutschland GmbH, priority 1998, dated 2003).

biological target: T1, intestinal bile acid transportation system (Na+-dependent) in brush border membrane vesicles of the ileum (Oryctolagus cuniculus, UniProt Q28727); assay: Inhibition of Na+-dependent [3H]-taurocholate uptake in brush border membrane vesicles of the ileum of rabbits; format: biochemical; conditions: quotient of the IC50Na of the reference substance taurochenodeoxycholate (TCDC) and of the test substance, 50 μM taurocholate, rabbit ileum vesicles
T1 construct: Preparation of Brush Border Membrane Vesicles from the Ileum of Rabbits; from tissue; host or cells: brush border membrane vesicles from terminal ileum of male New Zealand rabbits
T1 sequence (Q28727 1-347): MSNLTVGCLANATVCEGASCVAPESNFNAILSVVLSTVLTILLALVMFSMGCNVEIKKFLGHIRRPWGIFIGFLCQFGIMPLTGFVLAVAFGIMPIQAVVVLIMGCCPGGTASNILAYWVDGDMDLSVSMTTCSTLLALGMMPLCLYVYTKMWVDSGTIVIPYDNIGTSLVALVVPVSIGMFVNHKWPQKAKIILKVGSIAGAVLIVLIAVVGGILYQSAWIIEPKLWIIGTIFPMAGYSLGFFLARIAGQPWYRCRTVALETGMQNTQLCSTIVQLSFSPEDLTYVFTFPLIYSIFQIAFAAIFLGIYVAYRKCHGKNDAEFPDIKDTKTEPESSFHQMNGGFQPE
Protocol: Biological testing of the compounds according to the present invention was carried out by determining the inhibition of [^3H]-taurocholate uptake in brush border membrane vesicles of the ileum of rabbits. The inhibition test was carried out as follows:
1. Preparation of Brush Border Membrane Vesicles from the Ileum of Rabbits
Brush border membrane vesicles from the intestinal cells of the small intestine were prepared by the so-called Mg^2+ precipitation method. Male New Zealand rabbits (2 to 2.5 kg body weight) were sacrificed by intravenous injection of 0.5 ml T61®, an aqueous solution of 2.5 mg tetracaine HCl, […] embutramide and 25 mg mebezonium iodide. The small intestine was removed and rinsed with ice-cold physiological saline solution. The terminal 7/10 of the small intestine (measured in the oral-rectal direction, i.e., the terminal ileum, which contains the active Na^+-dependent bile acid transportation system) was used for preparation of the brush border membrane vesicles. The intestines were frozen in plastic bags under nitrogen at −80° C. For preparation of the membrane vesicles, the frozen intestines were thawed at 30° C. in a water bath. The mucosa was scraped off and suspended in 60 ml of ice-cold 12 mM TRIS/HCl buffer (pH 7.1)/300 mM mannitol, 5 mM EGTA/10 mg/l of phenylmethylsulfonyl fluoride/1 mg/l of trypsin inhibitor from soybeans (32 U/mg)/0.5 mg/l of trypsin inhibitor from bovine lung (193 U/mg)/5 mg/l of bacitracin. After dilution to 300 ml with ice-cold distilled water, the mixture was homogenized with an Ultraturrax (18-rod, IKA Werk Staufen, Germany) for 3 minutes at 75% of the maximum output by cooling with ice. After addition of 3 ml of 1 M MgCl2 solution (final concentration 10 mM), the mixture was allowed to stand for exactly 1 minute at 0° C. The cell membranes aggregate by addition of Mg^2+ and precipitate, with the exception of the brush border membranes. After centrifugation at 3000×g (5000 rpm, SS-34 rotor) for 15 minutes, the precipitate was discarded land the supernatant, which contains the brush border membranes, was centrifuged at 48000×g (20000 rpm, SS-34 rotor) for 30 minutes. The supernatant was discarded, and the precipitate was rehomogenized in 60 ml of 12 mM TRIS/HCl buffer (pH 7.1)/60 mM mannitol, 5 mM EGTA with a Potter Elvejhem homogenizer (Braun, Melsungen, 900 rpm, 10 strokes). After addition of 0.1 ml of 1 M MgCl2 solution and incubation for 15 minutes at 0° C., centrifugation was again carried out at 3000×g for 15 minutes. The supernatant was then centrifuged again at 48000×x g (20000 rpm, SS-34 rotor) for 30 minutes. The precipitate was taken up in 30 ml of 10 mM TRIS/HEPES buffer (pH 7.4)/300 mM mannitol and resuspended homogeneously by 20 strokes in a Potter Elvejhem homogenizer at 1000 rpm. After centrifugation at 48000×g (20000 rpm, SS-34 rotor) for 30 minutes, the precipitate was taken up in 0.5 to 2 ml of TRIS/HEPES buffer (pH 7.4)/280 mM mannitol (final concentration 20 mg/ml) and resuspended with the aid of a Tuberculin syringe with a 27-gauge needle. The vesicles were either used for transportation investigations directly after preparation or stored at −196° C. in 4 mg portions in liquid nitrogen.
2. Inhibition of the Na^+-dependent [^3H]taurocholate Uptake in Brush Border Membrane Vesicles of the Ileum
The uptake of substrates in the brush border membrane vesicles described above was determined by means of the so-called membrane filtration technique. 10 μl of the vesicle suspension (100 μg of protein) were pipetted as drops onto the wall of a polystyrene incubation tube (11×70 mm) which contained the incubation medium with the corresponding ligands (90 μl). […]

SMILES | IC50Na-TCDC (μmol) / IC50Na-compound (μmol)
O=C(CN1C(=O)c2ccccc2C1=O)Nc1ccccc1[C@@H](Nc1ccccn1)[C@H](c1ccccn1)[C@H](O)c1ccccc1 [Example 47] | 1.00
CC(C)S(=O)(=O)Nc1ccccc1C(Nc1ccccn1)C(c1ccccn1)C(O)c1ccccc1 (centres unmarked) [Example 77] | 0.22
C#CCCC(=O)Nc1ccccc1[C@@H](Nc1ccccn1)[C@H](c1ccccn1)[C@H](O)c1ccccc1 [Example 31] | 1.13
O=C(/C=C/c1cccs1)Nc1ccccc1[C@@H](Nc1ccccn1)[C@H](c1ccccn1)[C@H](O)c1ccccc1 [Example 53] | 0.46
CCCCOc1ccc(S(=O)(=O)Nc2ccccc2C(Nc2ccccn2)C(c2ccccn2)C(O)c2ccccc2)cc1 (centres unmarked) [Example 87] | 0.84
CCOC(=O)/C=C/C(=O)Nc1ccccc1[C@@H](Nc1ccccn1)[C@H](c1ccccn1)[C@H](O)c1ccccc1 [Example 57] | 0.79
O=S(=O)(Nc1ccccc1C(Nc1ccccn1)C(c1ccccn1)C(O)c1ccccc1)c1cc(C(F)(F)F)cc(C(F)(F)F)c1 (centres unmarked) [Example 78] | 0.27
O=S(=O)(Nc1ccccc1C(Nc1ccccn1)C(c1ccccn1)C(O)c1ccccc1)c1ccc(F)cc1 (centres unmarked) [Example 73] | 0.92
O=S(=O)(Nc1ccccc1C(Nc1ccccn1)C(c1ccccn1)C(O)c1ccccc1)c1cc(Cl)cc(Cl)c1O (centres unmarked) [Example 74] | 0.70
O=C(Cc1ccc(Cl)cc1)Nc1ccccc1[C@@H](Nc1ccccn1)[C@H](c1ccccn1)[C@H](O)c1ccccc1 [Example 33] | 0.52
N#CC1(C(=O)Nc2ccccc2[C@@H](Nc2ccccn2)[C@H](c2ccccn2)[C@H](O)c2ccccc2)CC1 [Example 62] | 0.99
O=C(O)c1ccc(S(=O)(=O)Nc2ccccc2C(Nc2ccccn2)C(c2ccccn2)C(O)c2ccccc2)cc1 (centres unmarked) [Example 91] | 0.92
O=C(Cc1ccccc1C(F)(F)F)Nc1ccccc1[C@@H](Nc1ccccn1)[C@H](c1ccccn1)[C@H](O)c1ccccc1 [Example 38] | 0.38
Cc1c(C)c(S(=O)(=O)Nc2ccccc2C(Nc2ccccn2)C(c2ccccn2)C(O)c2ccccc2)c(C)c2c1OC(C)(C)CC2 (centres unmarked) [Example 83] | 0.24
Cc1ccnc(SCC(=O)Nc2ccccc2[C@@H](Nc2ccccn2)[C@H](c2ccccn2)[C@H](O)c2ccccc2)n1 [Example 61] | 0.66
O=C(Cc1cccs1)Nc1ccccc1[C@@H](Nc1ccccn1)[C@H](c1ccccn1)[C@H](O)c1ccccc1 [Example 34] | 0.81
CN(CC(=O)Nc1ccccc1[C@@H](Nc1ccccn1)[C@H](c1ccccn1)[C@H](O)c1ccccc1)C(=O)OC(C)(C)C [Example 49] | 0.86
CN(C)c1cccc2c(S(=O)(=O)Nc3ccccc3C(Nc3ccccn3)C(c3ccccn3)C(O)c3ccccc3)cccc12 (centres unmarked) [Example 89] | 0.90

SMILES | IC50Na-TCDC (μmol) / IC50Na-compound (μmol)
CC1(C)[C@@H]2CCC1(CS(=O)(=O)Nc1ccccc1C(Nc1ccccn1)C(c1ccccn1)C(O)c1ccccc1)C(=O)C2 (some centres unmarked) [Example 69] | 1.00
CC(C)(C)c1ccc(S(=O)(=O)Nc2ccccc2C(Nc2ccccn2)C(c2ccccn2)C(O)c2ccccc2)cc1 (centres unmarked) [Example 66] | 0.93
CC(=O)Nc1nc(C)c(S(=O)(=O)Nc2ccccc2C(Nc2ccccn2)C(c2ccccn2)C(O)c2ccccc2)s1 (centres unmarked) [Example 93] | 1.10
O=C(CSc1ncccn1)Nc1ccccc1[C@@H](Nc1ccccn1)[C@H](c1ccccn1)[C@H](O)c1ccccc1 [Example 56] | 1.15
CCOCC(=O)Nc1ccccc1[C@@H](Nc1ccccn1)[C@H](c1ccccn1)[C@H](O)c1ccccc1 [Example 50] | 0.67
O=C(Cc1ccsc1)Nc1ccccc1[C@@H](Nc1ccccn1)[C@H](c1ccccn1)[C@H](O)c1ccccc1 [Example 41] | 0.61
O=C(COc1ccc(F)cc1)Nc1ccccc1[C@@H](Nc1ccccn1)[C@H](c1ccccn1)[C@H](O)c1ccccc1 [Example 44] | 1.05
Cc1ccccc1OCC(=O)Nc1ccccc1[C@@H](Nc1ccccn1)[C@H](c1ccccn1)[C@H](O)c1ccccc1 [Example 45] | 1.03
CCCCCC#CC(=O)Nc1ccccc1[C@@H](Nc1ccccn1)[C@H](c1ccccn1)[C@H](O)c1ccccc1 [Example 60] | 0.62
COc1cc(/C=C/C(=O)Nc2ccccc2[C@@H](Nc2ccccn2)[C@H](c2ccccn2)[C@H](O)c2ccccc2)ccc1O [Example 52] | 1.11
O=[N+]([O-])c1ccccc1S(=O)(=O)Nc1ccccc1C(Nc1ccccn1)C(c1ccccn1)C(O)c1ccccc1 (centres unmarked) [Example 65] | 0.84
O=C(CNC(=O)OCc1ccccc1)Nc1ccccc1[C@@H](Nc1ccccn1)[C@H](c1ccccn1)[C@H](O)c1ccccc1 [Example 64] | 0.39
O=S(=O)(Nc1ccccc1C(Nc1ccccn1)C(c1ccccn1)C(O)c1ccccc1)c1ccc(Cl)s1 (centres unmarked) [Example 82] | 0.79
CS(=O)(=O)c1ccc(S(=O)(=O)Nc2ccccc2C(Nc2ccccn2)C(c2ccccn2)C(O)c2ccccc2)cc1 (centres unmarked) [Example 94] | 0.40
N[C@@H](Cc1ccccc1)C(=O)N1CCC[C@H]1C(=O)Nc1ccccc1[C@@H](Nc1ccccn1)[C@H](c1ccccn1)[C@H](O)c1ccccc1 [Example 2c] | 1.06
O=C(CCC(=O)c1ccc(Cl)cc1)Nc1ccccc1[C@@H](Nc1ccccn1)[C@H](c1ccccn1)[C@H](O)c1ccccc1 [Example 36] | 0.36
COc1ccc(CCC(=O)Nc2ccccc2[C@@H](Nc2ccccn2)[C@H](c2ccccn2)[C@H](O)c2ccccc2)cc1OC [Example 35] | 0.36
